We go through seven compounds from ChEMBL document CHEMBL1201862, “PubChem BioAssay data set” (2004).

What all share (test): inhibition of tumour cell growth, NCI panel, 48 h
The test system of assay [1] is MDA-N.
Assay [2] concerns OVCAR-8.
The subject of assay [3] is NCI-H23.
Assay [4] relates to HCT-15.
For assay [5], the system named is SF-295.
The test system of assay [6] is SR.
The test system of assay [7] is 786-0.
The subject of assay [8] is T47D.
In assay [9] the test system is IGROV-1.
For assay [10], the system named is SK-OV-3.
The subject of assay [11] is PC-3.
The subject of assay [12] is OVCAR-4.
Assay [13] has as its system KM12.
The test system of assay [14] is SN12C.
The test system of assay [15] is UACC-62.
Assay [16] relates to EKVX.
The subject of assay [17] is LOX IMVI.
The subject of assay [18] is A549.
Assay [19] has as its system MDA-MB-231.
For assay [20], the system named is OVCAR-3.

Structures are written as SMILES.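 Exposure lasted 48 hours, with cells grown in 96-well plates and compounds tested at five concentrations. At the GI50, growth is halved.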 Calls of active or inactive are those of the source. Cut-off read from the data, not from the text of the source: active = GI50 up to about 1.1 µM and inactive = higher.

Regarding `CC(C)/C(Cl)=N\OC(=O)Nc1cccc(F)c1`, the GI50 in assay [1] was 15.4 µM (inactive); in [2], 17 µM (inactive); in assay [3], 15.9 µM (inactive); in assay [4], 15.8 µM; in assay [5], 32.9 µM (inactive); in assay [6] it was 2.35 µM (inactive). Further, the GI50 in assay [7] is 16 µM (inactive); in assay [8], 24.8 µM (inactive); in [9], 18.6 µM (inactive); in [10], 19.7 µM (inactive); in assay [11], 16.4 µM (inactive); in [12], 11.7 µM (inactive). Besides, the GI50 in assay [13] was 12.1 µM (inactive); in [14], 16.5 µM (inactive); in assay [15], 20.4 µM (inactive); in assay [16], 16.7 µM (inactive); in assay [17], 2.14 µM (inactive); in assay [18], 17.5 µM (inactive). The GI50 in [19] was 16.9 µM (inactive); in [20], 17 µM (inactive).
For `COc1cc(OC(=O)c2ccccc2)cc2c1C(=O)C=CC2=O`, the GI50 in assay [1] was 6.44 µM (inactive); in assay [2] it was 18.9 µM (inactive); in [3], 16.2 µM (inactive); in assay [4] it was 11.9 µM; in assay [5], 17.3 µM (inactive); in assay [6], 0.469 µM (active). Also, the GI50 in assay [7] was 8.39 µM (inactive); in assay [8], 1.89 µM (inactive); in assay [9] it was 15.1 µM (inactive); in assay [10], 20 µM (inactive); in assay [11] it was 14 µM (inactive); in [12], 5.4 µM (inactive). Also, the GI50 was 15.1 µM (inactive) in assay [13]; 19.5 µM (inactive) in [14]; 13.8 µM (inactive) in assay [15]; 13.2 µM (inactive) in [16]; 12.3 µM (inactive) in [17]; 36.2 µM (inactive) in assay [18]. The GI50 was 2.29 µM (inactive) in assay [19] and 5.32 µM (inactive) in assay [20].
Turning to `c1ccc2c(c1)CCN2CCN1CCc2ccccc21`, the GI50 in assay [1] was > 10 µM (inactive); in assay [2] it was > 10 µM (inactive); in assay [3], > 10 µM (inactive); in [4], greater than 10 µM; in assay [5] it was > 10 µM (inactive); in assay [6] it was > 10 µM (inactive). Also, the GI50 in [7], in assay [8], in assay [9], in assay [10], in assay [11] and in [12] was > 10 µM (inactive) throughout. Further, the GI50 in assay [13], in [14], in [15], in assay [16], in assay [17] and in assay [18] was > 10 µM (inactive) throughout. The GI50 in [19] and in assay [20] was > 10 µM (inactive) each time.
For the compound `NC(=O)c1cc2ccccc2c(/N=N/c2ccccc2)c1O`, the GI50 is > 100 µM (inactive) in assay [1]; 29.9 µM (inactive) in assay [2]; > 100 µM (inactive) in assay [3]; greater than 100 µM in [4]; > 100 µM (inactive) in assay [5]; > 100 µM (inactive) in assay [6]. Moreover, the GI50 was 9.31 µM (inactive) in assay [7]; > 100 µM (inactive) in assay [8]; > 100 µM (inactive) in assay [9]; 76.6 µM (inactive) in assay [10]; > 100 µM (inactive) in [11]; 19.4 µM (inactive) in assay [12]. The GI50 in assay [13] was 28.6 µM (inactive); in [14], > 100 µM (inactive); in assay [15], > 100 µM (inactive); in assay [16], 39.4 µM (inactive); in assay [17] it was > 100 µM (inactive); in assay [18] it was > 100 µM (inactive). Moreover, the figures for the GI50 in assay [19] and in assay [20] were 35.6 µM (inactive) and 88.1 µM (inactive), respectively.
Consider `CCCC(=O)OCC1OC(n2cc(F)c(=O)[nH]c2=O)C(F)C1OC(=O)CCC` (stereo not given), for which the GI50 is > 100 µM (inactive) in assay [1]; 19.6 µM (inactive) in assay [2]; 35.7 µM (inactive) in [3]; greater than 100 µM in assay [4]; 49.2 µM (inactive) in assay [5]; 9.73 µM (inactive) in assay [6]. Moreover, the GI50 in assay [7] is 18.2 µM (inactive); in assay [8], > 100 µM (inactive); in assay [9], 58.6 µM (inactive); in assay [10] it was > 100 µM (inactive); in assay [11], > 100 µM (inactive); in assay [12], 5.61 µM (inactive). Also, the GI50 in assay [13] was > 100 µM (inactive); in [14], 19.2 µM (inactive); in [15], 25.9 µM (inactive); in assay [16] it was 50 µM (inactive); in assay [17] it was 47.8 µM (inactive); in [18] it was 10.1 µM (inactive). For the same compound, the values for the GI50 in assay [19] and in assay [20] were > 100 µM (inactive) and 41.5 µM (inactive), respectively.
For `O=C1O/C(=C\c2ccc(O)cc2)C(c2ccc(O)c(Cl)c2)=C1Cl`, the GI50 was 23.5 µM (inactive) in assay [1]; 49.5 µM (inactive) in assay [2]; 33.7 µM (inactive) in assay [3]; 50 µM in [4]; 39.4 µM (inactive) in [5]; 27.7 µM (inactive) in assay [6]. In addition, the GI50 was 50.2 µM (inactive) in assay [7]; 59.7 µM (inactive) in assay [8]; 40.1 µM (inactive) in assay [9]; > 100 µM (inactive) in [10]; > 100 µM (inactive) in [11]; 69 µM (inactive) in assay [12]. Moreover, the GI50 was 34 µM (inactive) in assay [13]; 88.9 µM (inactive) in assay [14]; 32.1 µM (inactive) in assay [15]; 88.5 µM (inactive) in assay [16]; 50.6 µM (inactive) in [17]; 40.1 µM (inactive) in assay [18]. The GI50 is 77.4 µM (inactive) in assay [19] and 38.1 µM (inactive) in assay [20].
For the compound `C#CC1(O)C(COP(=O)(O)OCC2OC(n3ccc(NCCCCCCCCCCCCCCCCCC)nc3=O)C(O)C2O)OC(n2ccc(N)nc2=O)C1O` (stereo not given), the GI50 was 1.14 µM (inactive) in assay [1]; 1.07 µM (active) in [2]; 3.73 µM (inactive) in assay [3]; 0.353 µM in assay [4]; 0.349 µM (active) in [5]; < 0.0124 µM (active) in assay [6]. Also, the GI50 in [7] is 4.22 µM (inactive); in assay [8] it was 1.18 µM (inactive); in assay [9] it was 0.218 µM (active); in assay [10], 8.13 µM (inactive); in assay [11], 1.8 µM (inactive); in assay [12], 1.82 µM (inactive). In addition, the GI50 was 0.836 µM (active) in [13]; 0.488 µM (active) in [14]; 0.614 µM (active) in assay [15]; 8.24 µM (inactive) in [16]; 0.048 µM (active) in assay [17]; 0.0525 µM (active) in assay [18]. Also, the GI50 in [19] was 1.03 µM (active); in assay [20], 2.59 µM (inactive).
